Source: patent publication US6465176B1, “Method for identifying compounds RNA/RNA binding protein interactions” (Message Pharmaceuticals, Inc., priority 1998, dated 2002)

Experiments:
[1] = tested on: AUUUA RNA / RNA binding protein (K562 extract); assay: High throughput filter binding assay, 32P-labeled AUUUA RNA with K562 protein extract (exploratory library screen)
Excerpt: (§1) FIG. 4 is a graph of the amount of radioactively labeled RNA retained on a filter (expressed in percent of the amount of RNA retained on a filter in a reference binding solution) following loading of various binding solutions. All of the binding solutions contained radioactively labeled AUUUA RNA either alone or including various other components. The first column represents a binding solution without RNA binding protein. The remaining columns represent binding solution containing RNA binding protein (K562 extract). Columns 3 through 8 correspond to binding solutions including the indicated test compound.
(§2) All binding reactions were performed in 96-well v-bottom plates in a final volume of 10 μl. The assays were constituted and performed as described below. Specifically, assays were performed by (1) forming a binding solution including RNA molecules, 7.5 mM BTP at pH 8.5, 10 mM KCl, 5 mM MgCl2, 0.2 mM DTT, and 10% glycerol, (2) heating the binding solution to denature the RNA molecules, (3) cooling the binding solution, (4) adding RNA binding proteins to the binding solution, (5) loading the binding solution onto a filter, and (6) detecting the amount RNA retain on the filter.
The library was initially screened at 10 μM against ^32P-labeled AUUUA RNA. Several methods of introducing the compounds into the binding reaction were tested. Initially the compounds were co-incubated with the RNA and protein, producing modest results. Next, preincubation with either the protein extract or the RNA was tried with improved results.
Seventeen compounds were chosen for further analysis at 100 nM, 1 μM and 10 μM using both AUUUA and IRE RNAs based on the results from three screening efforts (Exps. 29-31). Table 1 summarizes the results from these compounds at 10 μM. The results are also shown graphically in FIG. 4. […] Compounds D9 and H2, chosen as negative controls from the initial screening, continued to have no effect in the dose dependent screen (Exp. 33) and were identified as vehicle controls.
A 96 member random compound library was screened with the disclosed high throughput assay. The compounds were initially screened at 10 μM against ^32P-labeled AUUUA RNA. […] Seventeen compounds were chosen for further analysis at 100 nM, 1 μM and 10 μM using both AUUUA and IRE RNA molecules to determine if any selectivity of the compounds could be detected. […] Gel shifts of these compounds using AUUUA RNA confirmed the activity of the inhibitors.

[2] = tested on: TNF-α production; conditions: previously shown; cited from earlier work
[3] = tested on: IRE RNA / RNA binding protein (K562 protein extract); assay: High throughput filter binding assay, IRE RNA with K562 protein extract; conditions: increasing concentrations: hemin 1 to 100 μM, FeCl3 and desferroxiamine 1 μM to 1 mM
Excerpt: as §1, with “3” for “4”, “IRE” for “AUUUA”, “extract).” for “extract). Columns 3 through 8 correspond to binding solutions including the indicated test compound.”
FIG. 5 is a graph of the amount of radioactively labeled RNA retained on a filter (expressed in percent of the amount of RNA retained on a filter in a reference binding solution) following loading of various binding solutions. Alternate columns correspond to binding solutions containing radioactively labeled AUUUA RNA or IRE RNA, either alone or including various other components. The first two column represents binding solutions without RNA binding protein. The remaining columns represent binding solution containing RNA binding protein (K562 extract). Columns 5 through 40 correspond to binding solutions including the indicated amount of the indicated test compound.
as §2, with “filter. […]” for “filter.”
Binding assays were performed with wild-type IRE RNA and K562 protein extract in the presence of sources of iron or iron chelators to determine the ability of the filter assay to detect the modulation of binding interactions by small molecules. […] The reactions were analyzed by gel shifts to visualize the results of the filter assay. […]

[4] = tested on: U1 RNA / RNA binding protein (K562 extract); assay: Filter binding competition assay, U1 RNA; conditions: increasing concentrations of unlabeled RNA
Excerpt: FIG. 2 is a graph of the amount of radioactively labeled RNA retained on a filter (expressed in percent of the amount of RNA retained on a filter in a reference binding solution) following loading of various binding solutions. All of the binding solutions contained radioactively labeled U1 RNA either alone or including various other components. The first two columns represent binding solutions without RNA binding protein. The remaining columns represent binding solution containing RNA binding protein (K562 extract). […] In this instance, the U1 mutant interacts with less affinity than does the wild type sequence.
as §2
To more fully test the filter assay, competitions were performed with U1 and His RNAs as well. U1 RNA has the sequence AAUCCAUUGCAC UCCGGAUUU (SEQ ID NO:10; M14587). His RNA has the sequence […] […]

[5] = tested on: His RNA / RNA binding protein; assay: Filter binding competition assay, His RNA; conditions: increasing concentrations of unlabeled RNA
Method: as §2
To more fully test the filter assay, competitions were performed with U1 and His RNAs as well. U1 RNA has the sequence AAUCCAUUGCAC UCCGGAUUU (SEQ ID NO:10; M14587). His RNA has the sequence […] (SEQ ID NO:11; X57138). […] The results of the U1 and His filter assay competitions reflect the ability of the assay to detect low affinity as well as higher affinity binding interactions.
Competition studies have been performed using the filter assay in which unlabeled wild-type or mutant RNA is added to the reaction at 100 to 10,000 times the concentration of ^32P-RNA to compete for the protein binding of the radiolabeled RNA. […] In this case, the mutant RNA has a weak binding affinity for the RNA binding protein. […]

[6] = compound 10 μM, K562 extract, RNA & K562 = 100.00

Molecule: C/C(=N\NC(=N)N)c1cc(NC(=O)CCCCCCCCC(=O)Nc2cc(/C(C)=N/NC(=N)N)cc(/C(C)=N/NC(=N)N)c2)cc(/C(C)=N/NC(=N)N)c1 [Compound G10, CNI-1493]
- effect on counts over the 4 experiments ([1]; 10 μM): substantial increase in counts in 3 of the 4 experiments
- Avg. % (labeled RNA retained on filter, average of Experiments #29-#31 and #33) ([1]; compound 10 μM, K562 extract): 111.00%
- Labeled RNA retained on filter, percent of RNA & K562 reference, Experiment #29 [1, 6]: 114.53%
- Labeled RNA retained on filter, percent of RNA & K562 reference, Experiment #30 [1, 6]: 66.94%
- Labeled RNA retained on filter, percent of RNA & K562 reference, Experiment #31 [1, 6]: 127.28%
- Labeled RNA retained on filter, percent of RNA & K562 reference, Experiment #33 [1, 6]: 135.24%
- effect on TNF-α production [2]: post-transcriptionally inhibit TNF-α production

Molecule: CC(=O)N(O)CCCCCNC(=O)CCC(=O)N(O)CCCCCNC(=O)CCC(=O)N(O)CCCCCN [Desferroxiamine, desferroxiamine]
- modulation of IRE/protein binding by small molecules [3]: did not change the amount IRE/protein complex formed

Molecule: hemin
- modulation of IRE/protein binding by small molecules [3]: concentration-dependent inhibition of binding

Molecule: U1 wild-type RNA: U1 RNA, sequence AAUCCAUUGCAC UCCGGAUUU (SEQ ID NO:10) (AAUCCAUUGCACUCCGGAUUU; listed as RNA, chemistry not given here)
- competition by unlabeled RNA for binding of labeled U1 RNA (filter assay) [4]: concentration dependent inhibition of binding

Molecule: His wild-type RNA: His RNA, sequence AAAAAGGCUCUUUUCAGAGCCACCCA (SEQ ID NO:11) (listed as RNA, chemistry not given here)
- competition by unlabeled RNA for binding of labeled His RNA (filter assay) [5]: concentration dependent inhibition of binding

Molecule: [Cl][Fe]([Cl])[Cl] [FeCl3]
- modulation of IRE/protein binding by small molecules [3]: concentration-dependent inhibition of binding
